Legend:
HBV [1] = assay: shRNA function against HBV infection of fresh human hepatocytes (PHH cells), short-term culture (Example 3); settings: for amount of cccDNA: shRNA alone, lentivirus day 0, HBV day 1, collected day 7; for amount of cccDNA, combined use of ETV: shRNA plus entecavir (ETV) 10 nM from day 2, collected day 7 (short-term culture)
Protocol: Using fresh human hepatocytes (PHH cells) derived from PXB mouse (PhoenixBio Co., Ltd., Hiroshima, Japan), effects of shRNAs against each gene on infection of human hepatocytes with HBV were determined. Experiments were carried out by culturing PHH cells as follows. First, on day 0 of culture, the cells were infected with the lentivirus expressing the shRNA against each of the genes by a conventional method. A serum collected from an HBV-infected chimeric mouse infected with HBV (Genotype C. 5 HBV DNA copies/cell) was added to the cells as an HBV inoculum on day 1 of culture. On day 2 of culture, the cells were washed three times and entecavir (ETV) (10 nM) was added thereto. On day 7 of culture, the cells were collected and the amount of HBV DNA, the amount of HBV cccDNA, and the mRNA level of each gene were determined. The amounts of HBV DNA, HBV cccDNA, and pg RNA were quantified in the same manner as in Example 1.

HBV [2] = assay: Effect of LIPG inhibitor on HBV in Huh7 cell line carrying HBV expression construct (Example 10); format: cell-based, hepatitis B virus; settings: Huh7 cells, inhibitor 1 μM to 100 μM added five days after construct introduction, one week; depending on the concentration
Protocol: An HBV expression construct (HBV-C: provided by Dr. Yasuhito Tanaka at Nagoya City University) was introduced into Huh7 cell line. Five days after the introduction, an LIPG inhibitor (GSK264220A) was added at 1 μM to 100 μM and the cells were cultured.

HCV = HCV replication analysis, JFH1-RNA transfected Huh 7.5 cells (Example 8); settings: Huh7.5 cells, 24, 48 and 72 hours after introduction of HCV RNA (JFH1-RNA)
Protocol: The antiviral activity of the shRNA against Dock11 gene was evaluated using a replicon system for JFH1 strain. HCV replication analysis was performed by transfecting Huh 7.5 cells with synthetic JFH1-RNA. Cells in which DOCK11 was constitutively knocked down were prepared by introducing DOCK11 shRNA #2 into Huh 7.5 cells. Cells into which cont shRNA was introduced were used as a control. Huh 7.5 cells into which each shRNA had been introduced were transfected with 1 μg synthetic RNA (JFH1-RNA) using TransIT®-mRNA Transfection Kit (Mirus). Total RNAs were isolated 24, 48 and 72 hours after the transfection using High Pure RNA Isolation Kit (Roche), and cDNAs were synthesized using high-capacity cDNA reverse transcription kit (Applied Biosystems, Carlsbad, Calif.).

HBV [3] = assay: shRNA introduced after established HBV infection of PHHs (Example 6); format: cell-based, hepatitis B virus; settings: shRNA introduced one week after HBV infection, cultured 3 weeks
Protocol: The effects of an shRNA on the proliferation of HBV when PHHs were infected with HBV and then treated with an shRNA were investigated. One week after PHHs were infected with HBV, the shRNA (SEQ ID NO: 2) against Dock11 gene was introduced and the cells were cultured for 3 weeks with culture medium changes.

DOCK11 gene = DOCK11 gene expression (mRNA) in Huh 7.5 cells (Example 8); settings: Huh7.5 cells, vs cont shRNA
Protocol: The mRNA of DOCK11 gene was quantified by real time PCR according to a conventional method.
The antiviral activity of the shRNA against Dock11 gene was evaluated using a replicon system for JFH1 strain. HCV replication analysis was performed by transfecting Huh 7.5 cells with synthetic JFH1-RNA. Cells in which DOCK11 was constitutively knocked down were prepared by introducing DOCK11 shRNA #2 into Huh 7.5 cells. Cells into which cont shRNA was introduced were used as a control. Huh 7.5 cells into which each shRNA had been introduced were transfected with 1 μg synthetic RNA (JFH1-RNA) using TransIT®-mRNA Transfection Kit (Mirus). Total RNAs were isolated 24, 48 and 72 hours after the transfection using High Pure RNA Isolation Kit (Roche), and cDNAs were synthesized using high-capacity cDNA reverse transcription kit (Applied Biosystems, Carlsbad, Calif.). […] The expression of DOCK11 gene was evaluated by determining the level of mRNA in the same manner as in Example 2.

Row | Compound | amount of cccDNA (HBV [1]) | amount of cccDNA, combined use of ETV (HBV [1]) | also measured
1 | DENND2A #2: lentivirus-expressed shRNA against DENND2A gene, SEQ ID NO: 7, used in Examples 3 and 4 (guide CCGGCCAATGAAGGAGAACCCTTATCTCGAGATAAGGGTTCTCCTTCATTGGTTTTTTG) | dramatically decreased | below the detection sensitivity | amount of cccDNA, combined use of ETV (HBV [1]; listed as shRNA for DENND2A gene): below the detection limit
2 | Cc1oc(S(=O)(=O)N2CCCCC2)cc1NC(=O)Nc1ccccc1 [GSK264220A] |  |  | amount of HBV DNA (HBV [2]): decreased; amount of HBV cccDNA (HBV [2]): decreased
3 | LIPG #5: lentivirus-expressed shRNA against LIPG gene, SEQ ID NO: 14, used in Examples 3 and 4 (guide CCGGTTACACGGATGCGGTCAATAACTCGAGTTATTGACCGCATCCGTGTAATTTTTG) | decreased | synergistic effect to decrease cccDNA | 
4 | DOCK11 #2: lentivirus-expressed shRNA against DOCK11 gene, SEQ ID NO: 2, used in Examples 3, 4, 6, 8, 12 (guide CCGGGTACTAGACACCATATCATTTCTCGAGAAATGATATGGTGTCTAGTACTTTTTG) | dramatically decreased | below the detection sensitivity | HCV RNA replication (HCV): effectively suppressed; amount of cccDNA, combined use of ETV (HBV [1]; listed as shRNA for Dock11 gene): below the detection limit; cccDNA of HBV (HBV [3]): disappear; pgRNA of HBV (HBV [3]): disappear; expression level of DOCK11 gene (DOCK11 gene): decreased
5 | HECW2 #3: lentivirus-expressed shRNA against HECW2 gene, SEQ ID NO: 17, used in Examples 3 and 4 (guide CCGGGCACAATACTTGGAGTCAATTCTCGAGAATTGACTCCAAGTATTGTGCTTTTT) | decreased | synergistic effect to decrease cccDNA | 
